Assay results from PubChem BioAssay (NCI).
“And” between values parts separate entries of the source, which are not always exact repeats. Equal entries are not always repeated.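 Assay format: 96-well plates, 48-hour exposure. GI50: concentration for 50% inhibition of growth. TGI: concentration producing complete growth inhibition.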

Assays:
Experiment in all cases: NCI anticancer screen, dose series, 48 h
[1] = tested on: UACC-257 melanoma
[2] = tested on: RPMI-8226 leukemia
[3] = tested on: SK-OV-3 ovarian
[4] = tested on: U251 CNS
[5] = tested on: SN12C renal
[6] = tested on: OVCAR-3 ovarian
[7] = tested on: MCF7 breast
[8] = tested on: UO-31 renal
[9] = tested on: OVCAR-8 ovarian
[10] = tested on: HT29 colon

Row | SMILES | GI50 [1] | TGI [1] | GI50 [2] | TGI [2] | GI50 [3] | TGI [3] | GI50 [4] | TGI [4] | GI50 [5] | TGI [5] | GI50 [6] | TGI [6] | GI50 [7] | TGI [7] | GI50 [8] | TGI [8] | GI50 [9] | TGI [9] | GI50 [10] | TGI [10]
1 | C=CC(=O)N1CC2(CC(n3nc(-c4ccc5c(cnn5C)c4)c(-c4c(Cl)c(C)cc5[nH]ncc45)c3C)C2)C1 | 2160 nM | 6.57 µM | 2130 nM | 6.72 µM | 5170 nM | 18.2 µM | 1890 nM | 4.07 µM | 3080 nM | 12.1 µM | 1980 nM | 4.18 µM | 2200 nM | 7.03 µM | 1970 nM | 4.68 µM | 2130 nM | 4.84 µM | 3620 nM | 29.5 µM
2 | Cn1ncc(Cl)c1-c1cc(C(=O)N[C@H](CN)Cc2ccc(F)c(F)c2)oc1Cl | 1640 nM and 1210 nM | 7.21 µM and 3.16 µM | 2050 nM and 2620 nM | 7.96 µM and > 7.98 µM | 232 nM and 259 nM | 3.75 µM and 5.04 µM | 289 nM and 171 nM | 13.5 µM and > 9.51 µM | 3480 nM and 1690 nM | 17.4 µM and > 10 µM | 1970 nM and 1600 nM | 15 µM and > 10 µM | 257 nM and 139 nM | 9.66 µM and 2.89 µM | 970 nM and 360 nM | 11.7 µM and > 7.68 µM | 9130 nM and 4990 nM | 23.7 µM and > 10 µM | 1150 nM and 346 nM | 15 µM and > 10 µM
3 | Cc1cc([N+](=O)[O-])c2ccccc2[n+]1[O-] | 1710 nM and 1490 nM | 4.45 µM and 4.7 µM | 60.2 nM and 30.8 nM | 0.359 µM and 0.0948 µM | 1940 nM and 3330 nM | 6.07 µM and 11.6 µM | 402 nM and 347 nM | 2.93 µM and 2.84 µM | 278 nM and 270 nM | 1.8 µM and 3.09 µM | 392 nM and 319 nM | 1.71 µM and 1.25 µM | 48.9 nM and 34.2 nM | 0.461 µM and 0.45 µM | 215 nM and 220 nM | 0.681 µM and 0.903 µM | 683 nM and 688 nM | 3.88 µM and 4.86 µM | 66 nM and 94.8 nM | 0.328 µM and 0.393 µM
4 | COc1ccc(/C(C#N)=C2C=C/C(=N/O)c3ccccc3\2)cc1 | 10500 nM | 22.7 µM | 371 nM | 9.76 µM | 301 nM | 3.4 µM | 446 nM | 15.1 µM | 418 nM | 13.5 µM | 314 nM | 2.79 µM | 181 nM | 14.1 µM | 593 nM | 15.3 µM | 327 nM | 13.1 µM | 705 nM | 4.53 µM
5 | CCn1c(-c2nonc2N)nc2cncc(C(=O)N3CC[C@H](N)C3)c21 | > 25000 nM | > 25 µM | > 25000 nM | > 25 µM | > 25000 nM | > 25 µM | > 25000 nM | > 25 µM | > 25000 nM | > 25 µM | > 25000 nM | > 25 µM | 14100 nM | > 25 µM | 269 nM | > 8.77 µM | > 25000 nM | > 25 µM | > 25000 nM | > 25 µM
